Measured values taken from article PMC7540184 (Journal of natural products, 2020).

Columns and labels:
Type in all cases: cell-based, human
BT-549 cells = assay: Intracellular Ca2+ imaging; details: BT-549, 150 nM and 500 nM, after 3 h, sustained at 6 h
MDA-MB-231 cells = assay: Intracellular Ca2+ imaging; details: MDA-MB-231, 150 nM
[1] = system: BT-549 cells with NCX1 knockout; assay: Sensitivity of BT-549 cells after CRISPR knockout of NCX1; details: inducible Cas9, three sgRNAs targeted to NCX1

## C[C@@H]1C[C@H](O)[C@]2(O)O[C@@H]3C[C@@]4(C=O)[C@@H](CC[C@@H]5[C@@H]4CC[C@]4(C)[C@@H](C6=CC(=O)OC6)CC[C@]54O)C[C@H]3O[C@@H]2O1 [calotropin (9), Calotropin]
BT-549 cells
  mean intracellular Ca2+ fluorescence compared to vehicle-treated cells: significantly increased
MDA-MB-231 cells
  change in Ca2+ fluorescence relative to BT-549 cells: significantly less
[1]
  effect of removing NCX1 on sensitivity of BT-549 cells: did not reduce the sensitivity
